Legend:
Format in all cases: in vivo, mouse
[1] = test system: TNFα, IL-6 and P-cadherin mRNAs; test: UVB psoriasis model: RT-PCR of TNF-α, IL-6 and P-cadherin mRNAs in skin; conditions: 20 μM lotion topical at 0, 1 and 2 h post-irradiation
Description: Inbred, 6-8 weeks of age female C57/BL6, C3H/HeN and Skh:hr-1 (hairless) mice were fed normal stock rodent rations and tap water ad libitum. One day prior to UVB irradiation, the dorsal hair of C57/BL6 and C3H/HeN mice was removed by clipping. A single UVB tube (Phillips TL-40W/12 RS, Eindhoven, The Netherlands) emitting a spectrum of 280-365 nm with a peak emission at 310 nm, was used as the light source for the experiments. The radiation was filtered through a sheet of 0.125 mm cellulose acetate (Grafix Plastics, OH, USA) to block wavelengths below 290 nm. Irradiance was measured with an IL 1500 radiometer (International Light Inc. Newburyport, Mass.) with a UVB detector (SEE 240/UVB) calibrated to the spectral output, and recorded as 1.71×10-4 W/cm2. Groups of three female C57/BL6 and C3H/HeN mice were exposed unrestrained in their cages to 7.24 kJ/m2 UVB radiation equal to 3× the minimal erythemal dose (MED) in these haired mice (fur clipped), an exposure of approximately 70 min. Control mice were clipped of fur in the same manner but were not exposed to UVB irradiation. Groups of 3 Skh:hr-1 mice received 3.59 kJ/m2 of UVB, which is equal to 3×MED on hairless mouse skin. Temperature under the radiation source was stabilised during the exposures with surrounding curtains and an electric fan.
Cpd. […]

mast cells = test: UVB psoriasis model: histochemical identification of dermal mast cells; conditions: 20 μM topical; 72 h post-UVB; UVB alone 14.2, unirradiated 9.8
Procedure: Groups of 3 Skh:hr-1 mice were exposed to 3×MEdD of UVB radiation, with and without topical treatments of 20 μM Cpd. 18 immediately and at 24 and 48 h post-UVB. The mice were euthanased and, and mid-dorsal skin samples were taken before and at 72 h after irradiation for histological fixation. The samples were fixed for 6 h in Histochoice and processed and wax-embedded as described above. Sections of 5 μm were cut for histochemical identification of mast cells, by staining with 0.1% toluidine blue solution in McIlvane buffer, pH 3. Positively stained cells with a diameter of 10 μm or more in the dermal compartment were counted under light microscopy (Olympus UPlanApo, Japan) using a at 20× magnification, in 10 sequential non-overlapping fields for each of 3 mice per treatment group, and the average mast cell number per field was obtained. Statistical significance of the differences between groups was determined using Student's t test. All the experiments were performed at least twice, with triplicate skin samples.

IL-6 = test: UVB psoriasis model: immunohistochemical detection of IL-6; conditions: 20 μM topical; 72 h; Skh:hr-1
Procedure: Groups of three Skh:hr-1 mice were exposed to 3×MEdD of UVB radiation, with and without topical treatment with 20 μM Cpd. 18, and were euthanased before and at 24, 48, 72 and 96 h after irradiation, and mid-dorsal skin samples were taken for histological fixation. The samples were fixed for 6 h in Histochoice (Amresco Solon, Ohio), then processed overnight in an automated formalin-ethanol-based system (Tissue Tek VIP; Bayer Diagnostics, Ferntree Gully, Australia) and embedded into paraffin blocks. Sections of 4 μm were cut onto silane-coated slides, de-waxed and rehydrated using xylene followed by graded aqueous ethanol solutions to PBS. […]
The IL-6 was detected by incubation with goat anti-mouse IL-6 antibody (R & D systems) followed biotinylated anti-goat IgG (Vector Laboratories, Burl ingame, CA), before treating with StreptABComplex/HRP (biotinylated horseradish peroxidase and streptavidin; Dako Corporation, CA) for 30 min. […]
The stained sections were examined by light microscopy at 20× magnification and images were captured digitally with a Sony Hyper HAD colour video camera (Sony, Tokyo, Japan). Stain intensity was analysed using a Leica Q500 MC image processing and analysis system (Leica, Cambridge, UK) and semi-quantitated in arbitrary image analysis units as the average intensity of 15 sequential fields across the skin section for each of 3 mice per treatment group. […]

COc1ccc(C2=Cc3ccc(O)cc3OC2)cc1OC [Cpd. 18, 7-Hydroxy-3′,4′-dimethoxyisoflav-3-ene]
production of TNFα, IL-6 and P-cadherin mRNAs post-UVB [1]: markedly reduced | dermal mast cell number (mast cells): 10.0 cells per field | UVB-induced levels of IL-6 immunopositivity in the epidermis (IL-6): significantly reduced
